The values that follow come from US20110230571A1, “DIAGNOSTIC AND THERAPEUTIC PROTOCOLS” (ALFRED HEALTH, priority 2007, published 2011).

Type in all cases: cell-based
For assay [1], the system named is HIV-1 from patient plasma on GHOSTX4R5 cells. How it is done: (§1) Blood is collected from HIV-1-infected individuals in sodium heparin, anti-coagulant citrate dextrose (ACD) a ethylenediamine tetraacetic acid (EDTA) and/or any other anti-coagulant blood tubes. The plasma isolated from each tube is stored at −80° C. until use.
To pellet the virus, plasma was diluted 1 in 2 (to a final volume of 800 μL) and layered over a 20% w/v sucrose cushion. The plasma was centrifuged at 17,000×g for 2 hours at 4° C. The supernatant was aspirated and the viral pellet (viral isolate) was resuspended in 50 μL of GHOST media (Dulbecco's Modified Eagle's Medium (DMEM, Invitrogen, Auckland, NZ), 10% v/v Cosmic calf serum (Quantum Scientific, Milton, Qld), 1× Penicillin/Streptomycin/Glutamine (Invitrogen), 1 μg/mL Puromycin (Sigma, St. Louis, Mo.), 100 μg/mL Hygromycin (Sigma), 500 μg/mL G418 (AG Scientific, San Diego, Calif.)) or DMEM-10 (DMEM, 10% v/v Cosmic calf serum) in the presence and absence of Heparin (20 U/mL, David Bull Laboratories, Melbourne, Australia). All samples contain polybrene at 2 μg/mL. Samples resuspended in DMEM-10 contain 40 μg/mL DEAE-Dextran.
Samples were resuspended in GHOST media and added to GHOSTX4R5 cells which have been seeded 24 hours previously in a 96-well flat-bottomed plate at 10,000 cells/well. GHOSTX4R5 cells are an adherent cell line derived from human osteosarcoma (HOS cells). They are stably transfected with the HIV-2 LTR driving hGFP construct and express green fluorescent protein (GFP) when productively infected with HIV or SIV. The cells also stably express surface CD4, CCR5 and CXCR4 (Morner et al. Journal of Virology 73:2342-2349, 1999) (NIH AIDS Research and Reference Reagent Program, Division of AIDS, NIAID, NIH).
Both cell lines are infected at the same time with HIV-1 strains 89.6 (uses both CXCR4 and CCR5), NL4-3 (uses CXCR4 only) and AD8 (uses CCR5 only) as positive controls for infection. The cells are then subjected to spinoculation—centrifugation at 1200×g for 2 hours at room temperature. The volume of media is increased to 150 μL with media and the cells are incubated for 5 days. Samples are observed for the presence of clot formation at all stages.
At day 5 post-infection, GHOST cells are washed in phosphate buffered saline (PBS), detached from the plate with Trypsin-EDTA, washed twice in FACS wash and fixed with FACS Fix. The cells are then analyzed by flow cytometry for expression of GFP as an indication of HIV-1 infection. TZMbl cells are washed in PBS and fixed for 5 mins in fixative. Cells are washed once and 50 μL of β-gal substrate is added to each well. The cells are incubated at 37° C. for 2 hours. […] Under a light microscope, the number of blue-stained (HIV-1 infected) foci are counted. Uninfected cells are analyzed as a negative/background control.

For assay [2] the test system is unchanged. Particulars: for number of patients whose virus infected GHOSTX4R5 cells: of 5 patients. How it is done:
Matched patient blood samples were collected from HIV-1 positive, viraemic individuals, in sodium heparin, ACD and EDTA blood tubes.
To prepare a viral isolate pellet, plasma was diluted 1 in 2 (to a final volume of 800 μL) and layered over a 20% v/v sucrose cushion. The plasma was centrifuged at 17,000×g for 2 hours at 4° C. The supernatant was aspirated and the viral pellet was resuspended in 50 μL media as follows: • Sodium heparin samples: • Resuspended in GHOST media. • ACD samples: • One sample resuspended in GHOST media. • One sample resuspended in GHOST media plus Heparin at 20 U/mL. • One sample resuspended in GHOST media plus EDTA* • EDTA samples: • One sample resuspended in GHOST media. • One sample resuspended in GHOST media plus Heparin at 20 U/mL. • One sample resuspended in GHOST media plus ACD*
*ACD and EDTA were obtained by filling collection tubes with 9 mL of GHOST media. This media was then used undiluted to resuspend the pellet.
All samples contained Polybrene at 2 μg/mL.
Samples were added to GHOSTX4R5 cells which had been seeded the night before in a 96-well flat-bottomed TC plate at 10,000 cells/well. The cells were subjected to Spinoculation—centrifugation at 1200×g for 2 hours at room temperature. The volume of media was increased to 150 μL with GHOSTX4R5 media and the cells were incubated for 5 days.
The cells were washed in PD, detached from the plate with Trypsin-EDTA, washed 2× in FACS wash and fixed with FACS Fix. The cells were then analyzed by flow cytometry for GFP expression as an indication of HIV-1 infection. Cells infected with HIV-1 lab strains 89.6, NL4-3 and AD8 were run concurrently as positive controls for infection. Uninfected cells were analyzed as a negative/background control.

Assay [3] concerns HIV-1 from patient plasma on TZMbl cells. The assay is described as follows: Infection of TZMbl indicator cells with virus pelleted from patient plasma (Example 2). Particulars: samples in DMEM-10 (n=9), plasma collected in the named anti-coagulant. How it is done:
as §1
To pellet the virus, plasma was diluted 1 in 2 (to a final volume of 800 μL) and layered over a 20% w/v sucrose cushion. The plasma was centrifuged at 17,000×g for 2 hours at 4° C. […]
Samples are also resuspended in DMEM-10 media and added to TZMbl cells. […] Upon integration of the host genome with the HIV-1 genome, these two genes are expressed and can be measured (NIH AIDS Research and Reference Reagent Program, Division of AIDS, NIAID, NIH (Derdeyn et al. Journal of Virology 74:8358-8367, 2000; Platt et al. Journal of Virology 72:2855-2864, 1998; Wei et al. Antimicrobial Agents and Chemotherapy 46:1896-1905, 2002). Following HIV infection of TZMbls, there is an increase in β-gal expression over the next 5 days. Infection is most simply measured by counting the number of cells that express β-gal (or are blue). The maximum number of blue cells that can be counted by this assay is 300 cells. […]
At day 5 post-infection, GHOST cells are washed in phosphate buffered saline (PBS), detached from the plate with Trypsin-EDTA, washed twice in FACS wash and fixed with FACS Fix. […] Uninfected cells are analyzed as a negative/background control.

[4] abbreviates: GHOSTX4R5 cells, samples in GHOST media (n=10), plasma collected in the named anti-coagulant.
Where [5] appears, read: Day 5 post-infection, named anti-coagulant combination.

Like-named read-outs stand apart in the source and are kept apart here.

As for `O=C(O)CN(CCN(CC(=O)O)CC(=O)O)CC(=O)O` [EDTA, ethylenediamine tetraacetic acid], the “patient samples with viral infection observed” value in assay [1] (setting [4]) was found to be 30%; in assay [3], 22%. Besides, the “mean number of infected cells” value in assay [2] (5 patients, ACD or EDTA added to samples) is recorded as “very low”. For the same molecule, in assay [2] (setting [5]), the “number of patients whose virus infected GHOSTX4R5 cells” value is given as 4.

heparin: the “patient samples with viral infection observed” value in assay [1] (GHOSTX4R5 cells (n=10), plasma collected in ACD, heparin added to the resuspended plasma pellet) is recorded as 50%; in assay [1] (GHOSTX4R5 cells (n=10), samples collected in EDTA to which heparin had been added), 40%; in assay [1] (setting [4]) it was 40%; in assay [3], 33%. Also, the “mean number of GFP positive cells per 100,000 cells” value in assay [2] (5 patients, blood collected in sodium heparin, compared with other anti-coagulant combinations) is reported as “highest”. In assay [2] (5 patients, heparin added to samples collected in ACD or EDTA, versus ACD or EDTA alone), the “mean number of infected cells” value is “slightly improved”. Besides, the “number of patients whose virus infected GHOSTX4R5 cells” value is listed as 3 in assay [2] (setting [5]) and 5 in assay [2] (viral isolates derived from ACD plasma to which heparin had been added).
